The results in this text go back to patent US20240327412A1, “FACTOR XIIA INHIBITORS” (KALVISTA PHARMACEUTICALS LIMITED, priority 2021, published 2024).

In one assay the target is T1, Human Factor XIIa (Homo sapiens, UniProt P00748).
T1 construct: Proteolytic cleavage of FXII to heavy and light chains of FXIIa dramatically increases catalytic activity; purchased Enzyme Research Laboratories
T1 sequence (P00748 373-615 limits assumed): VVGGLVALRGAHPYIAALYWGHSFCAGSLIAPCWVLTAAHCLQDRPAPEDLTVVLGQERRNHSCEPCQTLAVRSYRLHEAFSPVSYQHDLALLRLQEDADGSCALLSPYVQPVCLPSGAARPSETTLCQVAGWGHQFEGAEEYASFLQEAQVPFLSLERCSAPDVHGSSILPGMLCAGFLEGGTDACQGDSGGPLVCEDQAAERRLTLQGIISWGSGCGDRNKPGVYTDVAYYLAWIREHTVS
T1 sequence (P00748 20-372 partner limits assumed): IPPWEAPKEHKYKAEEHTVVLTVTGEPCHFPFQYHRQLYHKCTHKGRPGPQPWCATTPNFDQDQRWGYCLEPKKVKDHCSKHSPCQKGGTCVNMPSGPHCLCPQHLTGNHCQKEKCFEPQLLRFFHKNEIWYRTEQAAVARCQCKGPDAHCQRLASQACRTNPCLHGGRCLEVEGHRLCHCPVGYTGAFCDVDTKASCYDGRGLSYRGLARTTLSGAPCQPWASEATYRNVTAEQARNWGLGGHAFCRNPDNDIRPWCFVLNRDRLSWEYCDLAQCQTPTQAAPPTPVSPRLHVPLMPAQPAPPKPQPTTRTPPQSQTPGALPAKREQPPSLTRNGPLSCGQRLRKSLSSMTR
Kind of assay: Determination of FXIIa inhibition (fluorogenic substrate H-DPro-Phe-Arg-AFC, IC50 assay). It counts as biochemical. The settings on record: substrate at Km concentration, 25° C.; category scale; read-out: Human FXII IC50 (nm). A digest of the protocol: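 Human FXIIa incubated at 25° C. with fluorogenic H-DPro-Phe-Arg-AFC at its Km concentration plus varying compound levels. Linear fluorescence increase over 5 min taken as % activity; IC50 is concentration halving uninhibited activity.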

A further assay addresses T2, Plasma Kallikrein (Homo sapiens, UniProt P03952).
T2 construct: FXIIa converts plasma prekallikrein (PK) to plasma kallikrein (PKa)
Briefly: Related protease inhibition: Plasma Kallikrein (fluorogenic substrate at Km). It counts as biochemical. The settings on record: class symbols per Table 18, read-out: IC50 (human PKal). On the procedure:
In vitro inhibition of related proteases was determined using an IC50 assay based on standard literature methods (see e.g. Shori et al., Biochem. Pharmacol., 1992, 43, 1209; Bouckaert et al., European Journal of Medicinal Chemistry 110 (2016) 181). Human serine protease enzyme Plasma Kallikrein, KLK1, FXa, Plasmin, Thrombin and Trypsin were assayed for enzymatic activity using an appropriate fluorogenic substrate at Km concentration, FXIa at fixed substrate concentration of 100 μM and various concentrations of the test compound. Protease activity was measured by monitoring the accumulation of liberated fluorescence from the substrate over 5 min at 25° C. The linear rate of fluorescence increase per minute was expressed as percentage (%) activity. IC50 values were calculated as the concentration of inhibitor giving 50% inhibition of the uninhibited enzyme activity (100%).

T2 sequence (P03952 391-638 limits assumed): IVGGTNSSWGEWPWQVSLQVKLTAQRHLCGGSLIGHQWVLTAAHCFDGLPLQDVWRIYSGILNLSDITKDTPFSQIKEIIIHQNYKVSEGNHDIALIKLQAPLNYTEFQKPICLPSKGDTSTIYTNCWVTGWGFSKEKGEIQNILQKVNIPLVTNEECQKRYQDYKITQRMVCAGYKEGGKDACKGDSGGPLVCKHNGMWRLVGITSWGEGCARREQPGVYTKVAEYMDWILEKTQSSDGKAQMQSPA
T2 sequence (P03952 20-390 partner limits assumed): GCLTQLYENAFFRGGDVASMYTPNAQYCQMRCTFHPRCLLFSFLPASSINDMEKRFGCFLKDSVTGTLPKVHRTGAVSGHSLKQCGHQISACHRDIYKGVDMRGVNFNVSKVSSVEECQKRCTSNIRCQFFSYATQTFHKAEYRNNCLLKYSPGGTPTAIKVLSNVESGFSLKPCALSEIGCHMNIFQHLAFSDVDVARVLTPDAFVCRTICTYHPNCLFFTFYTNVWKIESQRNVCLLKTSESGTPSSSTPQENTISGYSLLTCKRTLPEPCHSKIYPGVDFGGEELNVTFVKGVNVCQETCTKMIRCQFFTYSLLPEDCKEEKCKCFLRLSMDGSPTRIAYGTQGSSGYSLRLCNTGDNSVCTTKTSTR

For orientation: IC50 means the point on the concentration scale where inhibition reaches its midpoint. With `CC(C)N1C[C@@H]2C[C@H]1CN2CC12CC(CNc3cccc4c(N)nccc34)(C1)C2` [Example 1005.1, N5-((3-(((1S,4S)-5-Isopropyl-2,5-diazabicyclo[2.2.1]heptan-2-yl)methyl)bicyclo[1.1.1]pentan-1-yl)methyl)isoquinoline-1,5-diamine], the figures for the IC50 on Human Factor XIIa and on Plasma Kallikrein were 0.3 to 1 µM and more than 40 µM, respectively.

For `Nc1nccc2c(NCC34CC(COc5ccc6nccn6n5)(CO3)C4)cccc12` [Example 6612, N5-((4-((imidazo[1,2-b]pyridazin-6-yloxy)methyl)-2-oxabicyclo[2.1.1]hexan-1-yl)methyl)isoquinoline-1,5-diamine], the concentration for half-maximal inhibition (IC50) is 1 to 3 µM on Human Factor XIIa and more than 40 µM at Plasma Kallikrein.

Consider `Clc1cc2c(NCC34CC(COc5ccn6ccnc6c5)(CO3)C4)ccnc2[nH]1` [Example 6606, 2-chloro-N-((4-((imidazo[1,2-a]pyridin-7-yloxy)methyl)-2-oxabicyclo[2.1.1]hexan-1-yl)methyl)-1H-pyrrolo[2,3-b]pyridin-4-amine], for which the results for the IC50 at Human Factor XIIa and at Plasma Kallikrein were 1 to 3 µM and more than 40 µM, respectively.

Regarding `Clc1cc2c(NCC34CC(COc5ccc6nccn6c5)(CO3)C4)ccnc2[nH]1` [Example 6611, 2-chloro-N-((4-((imidazo[1,2-a]pyridin-6-yloxy)methyl)-2-oxabicyclo[2.1.1]hexan-1-yl)methyl)-1H-pyrrolo[2,3-b]pyridin-4-amine], the figures for the IC50 on Human Factor XIIa and on Plasma Kallikrein were 1 to 3 µM and more than 40 µM, respectively.

For the molecule `Cn1cccc(OCC23CCOC(CNc4cccc5c(N)nccc45)(C2)C3)c1=O` [Example 10911, 3-((1-(((1-aminoisoquinolin-5-yl)amino)methyl)-2-oxabicyclo[3.1.1]heptan-5-yl)methoxy)-1-methylpyridin-2(1H)-one], the IC50 on Human Factor XIIa was 3 to 10 µM; on Plasma Kallikrein it was more than 40 µM.

For `Nc1nccc2c(N3CC4(CCC4OCc4ccn5ccnc5c4)C3)cccc12` (single isomer, unassigned) [Example 9002, (R*)-5-(5-(imidazo[1,2-a]pyridin-7-ylmethoxy)-2-azaspiro[3.3]heptan-2-yl)isoquinolin-1-amine], the IC50 at Human Factor XIIa is 10 to 40 µM; on Plasma Kallikrein, more than 40 µM.

`Nc1nccc2c(NCC34CC(COc5ccc6cn[nH]c6c5)(C3)C4)cccc12` [Example 1125, N5-((3-(((1H-indazol-6-yl)oxy)methyl)bicyclo[1.1.1]pentan-1-yl)methyl)isoquinoline-1,5-diamine]: the IC50 at Human Factor XIIa was 10 to 40 µM; on Plasma Kallikrein it was more than 40 µM.

In the case of `Clc1cc2c(NCC34CC(COC5CCn6ccnc6C5)(C3)C4)ccnc2[nH]1` (stereo not drawn) [Example 1130, 2-Chloro-N-[[3-(5,6,7,8-tetrahydroimidazo[1,2-a]pyridin-7-yloxymethyl)-1-bicyclo[1.1.1]pentanyl]methyl]-1H-pyrrolo[2,3-b]pyridin-4-amine], the half-inhibitory concentration (IC50) was 0.3 to 1 µM at Human Factor XIIa and more than 40 µM at Plasma Kallikrein.

Regarding `Nc1nccc2c(N3CC4(CC(COc5ccc6nccn6c5)C4)C3)cccc12` [Example 8808, 5-(6-((imidazo[1,2-a]pyridin-6-yloxy)methyl)-2-azaspiro[3.3]heptan-2-yl)isoquinolin-1-amine], the IC50 at Human Factor XIIa is 10 to 40 µM; at Plasma Kallikrein, more than 40 µM.

For `Nc1nccc2c(N3CCC4(CC(OCc5ccn6ccnc6c5)C4)C3)cccc12` (stereo not drawn) [Example 8805, 5-(trans*-2-(imidazo[1,2-a]pyridin-7-ylmethoxy)-6-azaspiro[3.4]octan-6-yl)isoquinolin-1-amine], the IC50 was 1 to 3 µM on Human Factor XIIa and more than 40 µM at Plasma Kallikrein.

As to `Nc1nccc2c(OCC34CC(C(=O)N5CCn6ccnc6C5)(C3)C4)cccc12` [Example 1015, [3-[(1-aminoisoquinolin-5-yl)oxymethyl]-1-bicyclo[1.1.1]pentanyl]-(6,8-dihydro-5H-imidazo [1,2-a]pyrazin-7-yl)methanone], the IC50 is 10 to 40 µM at Human Factor XIIa and more than 40 µM at Plasma Kallikrein.

On to `Nc1nccc2c(NCC34CC(Cn5ccn6ccc(=O)cc56)(C3)C4)cccc12` [Example 1127, 1-((3-(((1-aminoisoquinolin-5-yl)amino)methyl)bicyclo[1.1.1]pentan-1-yl)methyl)imidazo[1,2-a]pyridin-7(1H)-one], for which the 50% inhibitory concentration (IC50) on Human Factor XIIa is 3 to 10 µM; at Plasma Kallikrein it was more than 40 µM.

Turning to `Nc1nccc2c(N3CC4(CCC4OCc4ccn5ccnc5c4)C3)cccc12` (single isomer, unassigned) [Example 9003, (S*)-5-(5-(imidazo[1,2-a]pyridin-7-ylmethoxy)-2-azaspiro[3.3]heptan-2-yl)isoquinolin-1-amine], the IC50 was 10 to 40 µM at Human Factor XIIa and more than 40 µM on Plasma Kallikrein.

Regarding `Nc1nccc2c(NCC34CC(COc5ccc6nnc(C(F)F)n6n5)(CCO3)C4)cccc12` [Example 10910, N5-((5-(((3-(difluoromethyl)-[1,2,4]triazolo[4,3-b]pyridazin-6-yl)oxy)methyl)-2-oxabicyclo[3.1.1]heptan-1-yl)methyl)isoquinoline-1,5-diamine], the IC50 was 0.1 to 0.3 µM at Human Factor XIIa and more than 40 µM on Plasma Kallikrein.

`Nc1nccc2c(NC34CC(COc5ccc6nccn6c5)(C3)C4)cccc12` [Example 1131, N5-(3-((imidazo[1,2-a]pyridin-6-yloxy)methyl)bicyclo[1.1.1]pentan-1-yl)isoquinoline-1,5-diamine]: the concentration for half-maximal inhibition (IC50) on Human Factor XIIa is 10 to 40 µM; on Plasma Kallikrein, more than 40 µM.

For `Nc1nccc2c(N3CC4(CCC4OCc4ccn5ccnc5c4)C3)cccc12` (stereo not drawn) [Example 9001, 5-(5-(imidazo[1,2-a]pyridin-7-ylmethoxy)-2-azaspiro[3.3]heptan-2-yl)isoquinolin-1-amine], the IC50 at Human Factor XIIa was 10 to 40 µM; on Plasma Kallikrein it was more than 40 µM.

In the case of `Clc1cc2c(NCC34CC(COc5ccc6nccn6c5)(CCO3)C4)ccnc2[nH]1` [Example 10909, 2-Chloro-N-[[5-(imidazo[1,2-a]pyridin-6-yloxymethyl)-2-oxabicyclo[3.1.1]heptan-1-yl]methyl]-1H-pyrrolo[2,3-b]pyridin-4-amine], the 50% inhibitory concentration (IC50) on Human Factor XIIa was 1 to 3 µM; at Plasma Kallikrein it was more than 40 µM.

Turning to `N#Cc1cnc(OCC23CC(CNc4cccc5c(N)nccc45)(CO2)C3)nc1` [Example 2208, 2-((4-(((1-aminoisoquinolin-5-yl)amino)methyl)-2-oxabicyclo[2.1.1]hexan-1-yl)methoxy)pyrimidine-5-carbonitrile], the concentration for half-maximal inhibition (IC50) at Human Factor XIIa is 3 to 10 µM; at Plasma Kallikrein, more than 40 µM.

In the case of `Nc1nccc2c(NCC34CC(COc5ccc6c(c5)NC(=O)C6)(C3)C4)cccc12` [Example 1113, 6-((3-(((1-aminoisoquinolin-5-yl)amino)methyl)bicyclo[1.1.1]pentan-1-yl)methoxy)indolin-2-one], the values for the IC50 on Human Factor XIIa and on Plasma Kallikrein were 1 to 3 µM and more than 40 µM, respectively.

As for `Nc1nccc2c(N3CCC4(CC(OCc5ccn6ccnc6c5)C4)C3)cccc12` (stereo not drawn) [Example 8804, 5-(cis*-2-(imidazo[1,2-a]pyridin-7-ylmethoxy)-6-azaspiro[3.4]octan-6-yl)isoquinolin-1-amine], the half-maximal inhibitory concentration (IC50) at Human Factor XIIa was 1 to 3 µM; at Plasma Kallikrein, more than 40 µM.

As to `Nc1nccc2c(NCC34CC(COC5CCc6nccn6C5)(CO3)C4)cccc12` (stereo not drawn) [Example 6610, N5-((4-(((5,6,7,8-tetrahydroimidazo[1,2-a]pyridin-6-yl)oxy)methyl)-2-oxabicyclo[2.1.1]hexan-1-yl)methyl)isoquinoline-1,5-diamine], the half-maximal inhibitory concentration (IC50) was 0.3 to 1 µM on Human Factor XIIa and more than 40 µM at Plasma Kallikrein.

On to `Nc1nccc2c(NCC34CC(Cn5ccccc5=O)(CCO3)C4)cccc12` [Example 10915, 1-((1-(((1-aminoisoquinolin-5-yl)amino)methyl)-2-oxabicyclo[3.1.1]heptan-5-yl)methyl)pyridin-2(1H)-one], for which the IC50 is 10 to 40 µM on Human Factor XIIa and more than 40 µM at Plasma Kallikrein.

With `Nc1nccc2c(NCC34CC(COC5CCc6nccn6C5)(CCO3)C4)cccc12` (stereo not drawn) [Example 10908, N5-((5-(((5,6,7,8-tetrahydroimidazo[1,2-a]pyridin-6-yl)oxy)methyl)-2-oxabicyclo[3.1.1]heptan-1-yl)methyl)isoquinoline-1,5-diamine], the half-maximal inhibitory concentration (IC50) is 0.3 to 1 µM on Human Factor XIIa and more than 40 µM on Plasma Kallikrein.

On to `Nc1nccc2c(N3CCC4(CC(OCc5ccn6ccnc6c5)C4)C3)cccc12` (stereo not drawn) [Example 8803, 5-(2-(imidazo[1,2-a]pyridin-7-ylmethoxy)-6-azaspiro[3.4]octan-6-yl)isoquinolin-1-amine], for which the IC50 was 1 to 3 µM on Human Factor XIIa and more than 40 µM on Plasma Kallikrein.
